≈ marks a conversion by molar mass, not a printed value.

Our source for the EC50 values is ChEMBL document CHEMBL1146390, “Cytotoxic acylated Spermidine from a soft coral, Sinularia sp” (1997).

The subject of the assay is P388. Nature of the assay: Cytotoxicity against mouse P388 cells. Format: functional. The settings on record: read-out: ED50 (the source's name).

In the case of `CCCCCCCCCC(C)/C=C/CC(=O)NCCCN(C)CCCCN(C)C` (stereo unspecified), the EC50 is 0.04 µg/mL (≈ 0.0976 µM).
